# Measurements taken from paper PMC9962402, “Fast and Simple Liquid Chromatography-Isotope Dilution Tandem Mass Spectrometry Method for Therapeutic Drug Monitoring of Dalbavancin in Long-Term Treatment of Subacute and/or Chronic Infections” (Pharmaceutics, 2023).
# Legend:
# [1] = Freeze-thaw stability of DBV in plasma samples
# Description: Stability of DBV was assessed by comparing the nominal concentrations of LQC, MQC and HQC with those observed under two different conditions: • sample extracts kept on board at 10 °C for 24 h and frozen at −80 °C for 24 h; • plasma samples analyzed after three complete freeze and thaw cycles (from −80 °C to 25 °C).
# Stability in the above operating conditions was deemed suitable if DBV concentrations were within ±15% of the nominal value.
# [2] = human; cited from earlier work
# [3] = Stability of DBV in sample extracts (autosampler, freezer); format: physicochemical; conditions: for Avg Accuracy (Bias%): vs nominal concentration, LC-MS/MS
# [4] = human, in vivo
# Description: Plasma samples (3 μL) were added to 47 μL of ultrapure water to achieve a dilution factor of 17 and then mixed with 150 μL of the IS-methanol solution (1 mg/L DBV-d6). The mixture was vortexed for 15 s and then centrifuged at room temperature at 13,000 rpm for 5 min. Subsequently, 50 µL of the clear supernatant was transferred to an autosampler vial, and a volume of 3 µL was injected into the LC-MS/MS system (Figure 2).
# The presented ITD LC-MS/MS method was tested for measuring DBV concentrations in patients receiving DBV for the treatment of long-term subacute or chronic documented Gram-positive infections (namely osteoarticular infections, endocarditis, and endovascular prosthetic infections). In our study, DBV treatment was started according to the internal protocol consisting of two 1500 mg doses one week apart. Requirement for additional doses was assessed by the treating physician after at least four weeks according to the underlying clinical conditions of each patient. […] The number of samples assessed was 520. Samples for Dalbavancin TDM were usually collected at predefined timeframes between 21 and 35 days after first administration. […] Blood samples respected the cold chain delivery and were processed either immediately after delivery or after freezing at −80 °C until analysis, depending on case-by-case.
compound,measurement,setting,value
"CN[C@H]1C(=O)N[C@@H]2Cc3ccc(cc3)Oc3cc4cc(c3O[C@@H]3O[C@H](C(=O)O)[C@@H](O)[C@H](O)[C@H]3NC(=O)CCCCCCCCC(C)C)Oc3ccc(cc3Cl)[C@@H](O)[C@@H]3NC(=O)[C@H](NC(=O)[C@@H]4NC(=O)[C@@H](NC2=O)c2cc(cc(O)c2Cl)Oc2cc1ccc2O)c1ccc(O)c(c1)-c1c(O[C@H]2O[C@H](CO)[C@@H](O)[C@H](O)[C@@H]2O)cc(O)cc1[C@@H](C(=O)NCCCN(C)C)NC3=O [DBV, Dalbavancin]",change of DBV concentrations after freeze and thaw cycles,[1],decreased
same,Avg Accuracy (Bias%),"[1]; human plasma samples, 1 freeze-thaw cycle (−80 °C to 25 °C), Low QC 7 mg/L, vs nominal, LC-MS/MS",14.8%
same,plasma protein binding,[2],very high
same,Avg Accuracy (Bias%),"[3]; extract (MeOH:H2O protein precipitation of plasma) kept in autosampler at 10 °C, post 24 h, Low QC 7 mg/L, acceptance ±15%",22.1%
same,Avg Accuracy (Bias%),"[3]; extract in freezer (−80 °C) post 24 h, High QC 280 mg/L",12.3%
same,Avg Accuracy (Bias%),"[3]; extract in freezer (−80 °C) post 24 h, Low QC 7 mg/L",16.8%
same,Avg Accuracy (Bias%),"[3]; extract in freezer (−80 °C) post 24 h, Medium QC 70 mg/L",6.7%
same,Avg Accuracy (Bias%),"[3]; extract kept in autosampler at 10 °C, post 24 h, High QC 280 mg/L",14.8%
same,Avg Accuracy (Bias%),"[3]; extract kept in autosampler at 10 °C, post 24 h, Medium QC 70 mg/L",9.4%
same,time for which autosampler extracts were stable,[3]; extracts kept at 10 °C,at least 24 h
same,"DBV concentration, first quartile",[4],11 mg/L
same,"DBV concentration, maximum",[4],77.0 mg/L
same,"DBV concentration, minimum",[4],2.0 mg/L
same,"DBV concentration, third quartile",[4],31.8 mg/L
same,"DBV concentration, median",[4]; 1500 mg,18 mg/L
